The test system of one data set is Pseudomonas Walter. Nature of the data set: MIC, test tube series dilution test. The following applies: 24 hours, 37°C, liquid medium.
Data set [1] is described as follows: Solubility noted during working up. In kind it is physicochemical. The text has this:
Yield 42% of sodium D(-) -α-[(3-oxo-4-methyl-pyrazolidin-1-yl)-carbonylamino]-benzylpenicillin.

The test system of another data set is Pseudomonas F 41. The experiment in a line: MIC, test tube series dilution test. In kind it is cell-based. The conditions noted are these: 24 hours, 37°C, liquid medium. An excerpt: |D(+) Dextrose (Merck) 10 g
For data set [2], the system named is Staphylococcus aureus 133. The experiment in a line: Freedom from cloudiness in Muller-Hinton broth. In kind it is cell-based. The following applies: 100 μg/ml, 24 hours.
The next data set concerns Klebsiella 63. The experiment in a line: Freedom from cloudiness in Muller-Hinton broth. The data set is classed as cell-based. The conditions noted are these: 100 μg/ml, 24 hours.
The next data set deals with Proteus vulgaris 1017. The experiment in a line: Freedom from cloudiness in Muller-Hinton broth. In kind it is cell-based. The conditions noted are these: 100 μg/ml, 24 hours.
Another data set concerns Klebsiella K 10. Nature of the data set: Freedom from cloudiness in Muller-Hinton broth. The following applies: 100 μg/ml, 24 hours. The data set is classed as cell-based.
In another data set the test system is Clostridium tetani. The data set is classed as cell-based. The conditions noted are these: 100 μg/ml, 24 hours.
The subject of data set [3] is Proteus, indole-negative, sp. The experiment in a line: Freedom from cloudiness in Muller-Hinton broth. The data set is classed as cell-based. The conditions noted are these: 100 μg/ml, 24 hours.
Data set [4] concerns Corynebacterium diphteriae gravis. Nature of the data set: Freedom from cloudiness in Muller-Hinton broth. In kind it is cell-based. The following applies: 100 μg/ml, 24 hours.
A further data set deals with Proteus morg. The experiment in a line: MIC, test-tube dilution method.
A further data set relates to Proteus vulg. Nature of the data set: MIC, test-tube dilution method.
A further data set has as its system Streptococcus pyogenes W. The experiment in a line: Freedom from cloudiness in Muller-Hinton broth. The data set is classed as cell-based. The following applies: 100 μg/ml, 24 hours.
Another data set has as its system Bacteroides sp. Nature of the data set: Freedom from cloudiness in Muller-Hinton broth. The data set is classed as cell-based. The conditions noted are these: 100 μg/ml, 24 hours.
A further data set deals with Klebsiella pneum. Nature of the data set: MIC, test-tube dilution method.
The next data set relates to Staph.aureus 133. Nature of the data set: MIC, test-tube dilution method.
The subject of a further data set is Pseudomonas aeruginosa W. The experiment in a line: Animal experiments with white mice infected intraperitoneally. The data set is classed as in vivo, white mice of strain CF1. The conditions noted are these: subcutaneously, 4 × (per administration; 30 minutes, 2, 4 and 6 hours after infection). Here is the method:
(§1) The white mice of strain CF1 were infected intraperitoneally with the species of bacteria indicated in each case. |Animal experiments with white mice: |Determination of the ED50 after 24 hours. | Dose in units of the | penicillin compound of | Example 1 per kg, given |Germ subcutaneously |Therapy: | 4 administrations: | 30 minutes, 2 hours, 4 hours | and 6 hours after infection The ED50 is a dose at which 50% of the infected animals still survive after 24 hours.

Data set [5] deals with Pseudomonas aeruginosa F 41. The description is as above. The data set is classed as in vivo, white mice of strain CF1. The following applies: subcutaneously, 4 × (per administration; 30 minutes, 2, 4 and 6 hours after infection). How it is done:
as §1

In the next data set the test system is Serratia sp. Nature of the data set: Freedom from cloudiness in Muller-Hinton broth. In kind it is cell-based. The following applies: 100 μg/ml, 24 hours.
In data set [6] the test system is Proteus, indole-positive, sp. Nature of the data set: Freedom from cloudiness in Muller-Hinton broth. The conditions noted are these: 100 μg/ml, 24 hours. The data set is classed as cell-based.
Another data set has as its system Haemophilus influenzae. The experiment in a line: Freedom from cloudiness in Muller-Hinton broth. The data set is classed as cell-based. The following applies: 100 μg/ml, 24 hours.
A further data set concerns Lactobacillus sp. Nature of the data set: Freedom from cloudiness in Muller-Hinton broth. In kind it is cell-based. The conditions noted are these: 100 μg/ml, 24 hours.
The next data set has as its system Enterococcus sp. Nature of the data set: Freedom from cloudiness in Muller-Hinton broth. The conditions noted are these: 100 μg/ml, 24 hours. The data set is classed as cell-based.
The subject of the next data set is Enterococcus ATCC 9790. Nature of the data set: MIC, test-tube dilution method.
In another data set the test system is E.coli C 165. The experiment in a line: Freedom from cloudiness in Muller-Hinton broth. In kind it is cell-based. The following applies: 100 μg/ml, 24 hours.
In a further data set the test system is E.coli 14. Nature of the data set: Freedom from cloudiness in Muller-Hinton broth. The following applies: 100 μg/ml, 24 hours. The data set is classed as cell-based.
For the next data set, the system named is Borrelia sp. Nature of the data set: Freedom from cloudiness in Muller-Hinton broth. The data set is classed as cell-based. The following applies: 100 μg/ml, 24 hours.
Data set [7] relates to Diplococcus pneumoniae sp. Nature of the data set: Freedom from cloudiness in Muller-Hinton broth. The data set is classed as cell-based. The conditions noted are these: 100 μg/ml, 24 hours.
Data set [8] has as its system Neisseria catarrhalis sp. Nature of the data set: Freedom from cloudiness in Muller-Hinton broth. The data set is classed as cell-based. The following applies: 100 μg/ml, 24 hours.
Data set [9] deals with Pseudomonas aeruginosa sp. The experiment in a line: Freedom from cloudiness in Muller-Hinton broth. The data set is classed as cell-based. The following applies: 100 μg/ml, 24 hours.
For another data set, the system named is E.coli B. The experiment in a line: MIC, test-tube dilution method. In kind it is cell-based.
Another data set relates to Aeromonas hydrophila sp. Nature of the data set: Freedom from cloudiness in Muller-Hinton broth. The data set is classed as cell-based. The conditions noted are these: 100 μg/ml, 24 hours.
The subject of a further data set is Brucella sp. In kind it is cell-based. The following applies: 100 μg/ml, 24 hours.
Another data set deals with Salmonella sp. Nature of the data set: Freedom from cloudiness in Muller-Hinton broth. The data set is classed as cell-based. The conditions noted are these: 100 μg/ml, 24 hours. Here is the method:
(§2) The compounds of the invention are also active against other genera of bacteria. This is shown by the following experiment, which was carried out with the compound of Example 1.
(§3) The compound of Example 1 was diluted to 100 μg/ml with Muller-Hinton nutrient broth, with the addition of 0.1% glucose. The nutrient solution in each case contained 1 × 10^5 to 2 × 10^5 bacteria per milliliter. The test tubes containing this mixture was incubated for 24 hours in each case and the degree of cloudiness was subsequently determined.

Data set [10] concerns Pasteurella psuedotuberculosis. The experiment in a line: Freedom from cloudiness in Muller-Hinton broth. In kind it is cell-based. The conditions noted are these: 100 μg/ml, 24 hours. Here is the method: as §2, §3
A further data set concerns Shigella sp. The experiment in a line: Freedom from cloudiness in Muller-Hinton broth. The conditions noted are these: 100 μg/ml, 24 hours. The data set is classed as cell-based. How it is done: as §2, §3
The subject of another data set is Clostridium botulinium. In kind it is cell-based. The following applies: 100 μg/ml, 24 hours.
Data set [11] deals with Corynebacterium pyogenes M. Nature of the data set: Freedom from cloudiness in Muller-Hinton broth. The following applies: 100 μg/ml, 24 hours. In kind it is cell-based.
Data set [12] has as its system Bordetella bronchiseptica. Nature of the data set: Freedom from cloudiness in Muller-Hinton broth. The data set is classed as cell-based. The conditions noted are these: 100 μg/ml, 24 hours.
The test system of a further data set is E. coli C 165. Nature of the data set: Animal experiments with white mice infected intraperitoneally. The data set is classed as in vivo, white mice of strain CF1. The following applies: subcutaneously, 1 × (1 administration, 30 minutes after infection). Here is the method:
(§4) The white mice of strain CF1 were infected intraperitoneally with the species of bacteria indicated in each case. |Animal experiments with white mice: |Determination of the ED50 after 24 hours. | Dose in units of the | penicillin compound of | Example 1 per kg, given |Germ subcutaneously |Therapy: | 1 administration: | 30 minutes after infection The ED50 is a dose at which 50% of the infected animals still survive after 24 hours.

The next data set has as its system Staphyloccus aureus. The data set is described as above. In kind it is in vivo, white mice of strain CF1. The following applies: subcutaneously, 1 × (1 administration, 30 minutes after infection). How it is done: as §4
The test system of another data set is Enterobacter sp. Nature of the data set: Freedom from cloudiness in Muller-Hinton broth. In kind it is cell-based. The following applies: 100 μg/ml, 24 hours.
For the next data set, the system named is E.coli 26/6. The experiment in a line: MIC, test-tube dilution method.

The structures appear in SMILES notation.

Consider `CC1CN(C(=O)N[C@@H](C(=O)N[C@@H]2C(=O)N3[C@@H]2SC(C)(C)[C@@H]3C(=O)O)c2ccccc2)NC1=O` (single isomer, unassigned) [Example 11 C, sodium D(-) -α-[(3-oxo-4-methyl-pyrazolidin-1-yl)-carbonylamino]-benzylpenicillin], for which, in the data set with Pseudomonas Walter, the MIC is 16 - 64 μ/ml.
For the molecule `CC1(C)S[C@@H]2[C@H](NC(=O)[C@H](NC(=O)N3NC(=O)CC3c3ccccc3)c3ccccc3)C(=O)N2[C@H]1C(=O)O` (single isomer, unassigned) [Example 14, sodium D(-)-α-[(3-oxo-5-phenyl-pyrazolidin-1-yl)-carbonylamino]-benzylpenicillin], in the data set on Pseudomonas Walter, the MIC was 4 - 16 μ/ml.
With `CC1CN(C(=O)N[C@@H](C(=O)N[C@@H]2C(=O)N3[C@@H]2SC(C)(C)[C@@H]3C(=O)O)c2ccccc2)NC1=O` (single isomer, unassigned) [free penicillic acid, D(-)-α-[(3-oxo-4-methyl-pyrazolidin-1-yl)-carbonylamino]-benzylpenicillin], the “solubility in ethyl acetate” value in data set [1] (ethyl acetate) was “sparingly soluble”. Further, in [1] (water), the solubility in water entry was “sparingly soluble”.
For `CC1(C)S[C@@H]2[C@H](NC(=O)[C@H](N)c3ccccc3)C(=O)N2[C@H]1C(=O)O` [Ampicillin, α-aminobenzylpenicillin, reference compound], the MIC against Pseudomonas F 41 and in the data set on Pseudomonas Walter was greater than 400 μ/ml each time.
For the molecule `CC1(C)S[C@@H]2[C@H](NC(=O)C(C(=O)O)c3ccccc3)C(=O)N2[C@H]1C(=O)O` (stereo partly drawn) [Carbenicillin, reference compound], the results for the MIC with Pseudomonas F 41 and against Pseudomonas Walter were greater than 200 μ/ml and 200 μ/ml, respectively.
Regarding `Cc1cn(C(=O)N[C@@H](C(=O)N[C@@H]2C(=O)N3[C@@H]2SC(C)(C)[C@@H]3C(=O)O)c2ccccc2)[nH]c1=O` [Example 1 B, sodium D(-)-α-[(4-methyl-5-oxo-3-pyrazolin-2-yl)-carbonylamino]-benzylpenicillin], the Freedom from cloudiness entry (in data set [2]; in the data set on Klebsiella 63; in the data set with Proteus vulgaris 1017; in the data set on Klebsiella K 10; with Clostridium tetani; in data set [3]) was “free of cloudiness” each time. Further, the Freedom from cloudiness entry (in data set [4]; in the data set with Streptococcus pyogenes W; in the data set with Bacteroides sp.; in the data set on Serratia sp.; in data set [6]; in the data set on Haemophilus influenzae) was “free of cloudiness” in each case. Also, the Freedom from cloudiness entry (in the data set with Lactobacillus sp.; in the data set on Enterococcus sp.; with E.coli C 165; in the data set on E.coli 14; in the data set with Borrelia sp.; in [7]) was “free of cloudiness” in each case. Besides, the Freedom from cloudiness result (in data set [8]; in data set [9]; in the data set with Aeromonas hydrophila sp.; with Brucella sp.; with Salmonella sp.; in [10]) was “free of cloudiness” each time. The Freedom from cloudiness entry (in the data set on Shigella sp.; in the data set with Clostridium botulinium; in [11]; in data set [12]; in the data set with Enterobacter sp.) was “free of cloudiness” each time. Also, the MIC against Pseudomonas F 41 is listed as 8 μ/ml; against Proteus morg., 128 U/ml; in the data set on Proteus vulg. it was 128 U/ml; with Klebsiella pneum., 128 U/ml; with Staph.aureus 133, 0.5 U/ml; against Enterococcus ATCC 9790, 32 U/ml. The figures for the MIC in the data set with E.coli B, against Pseudomonas Walter and against E.coli 26/6 were 32 U/ml, 8 μ/ml and 1 U/ml, respectively. In addition, the “ED50 after 24 hours” value with Pseudomonas aeruginosa W is reported as 75,000 units per kg; in data set [5], 100,000 units per kg; in the data set with E. coli C 165 it was 200,000 units per kg; in the data set on Staphyloccus aureus, 40,000 units per kg.
Regarding `CC1(C)S[C@@H]2[C@H](NC(=O)[C@H](NC(=O)n3cc(-c4ccccc4)c(=O)[nH]3)c3ccccc3)C(=O)N2[C@H]1C(=O)O` [Example 2 C, sodium D(-)-α-[(4-phenyl-5-oxo-3-pyrazolin-2-yl)-carbonylamino]-penzylpenicillin], the MIC against Pseudomonas F 41 and against Pseudomonas Walter was 4 μ/ml throughout.
Turning to `Cc1cn(C(=O)N[C@@H](C(=O)N[C@@H]2C(=O)N3[C@@H]2SC(C)(C)[C@@H]3C(=O)O)c2ccc(O)cc2)[nH]c1=O` [Example 8, Sodium D(-)-α-[(4-methyl-5-oxo-3-pyrazolin-2-yl)-carbonylamino]-p-hydroxybenzylpenicillin], the MIC is listed as 8 - 16 μ/ml in the data set with Pseudomonas F 41 and 8 μ/ml with Pseudomonas Walter.
In the same order, the values of `Cc1cn(C(=O)N[C@@H](C(=O)N[C@@H]2C(=O)N3[C@@H]2SC(C)(C)[C@@H]3C(=O)O)C2=CCC=CC2)[nH]c1=O` [Example 9, Sodium D(-)-α-[(4-methyl-5-oxo-3-pyrazolin-2-yl)-carbonylamino]-α-(cyclohexa-1,4-dien-1-yl)-methylpenicillin] are 8 - 16 μ/ml and 16 - 32 μ/ml.
`CC1(C)S[C@@H]2[C@H](NC(=O)[C@H](NC(=O)N3CCC(=O)N3)c3ccccc3)C(=O)N2[C@H]1C(=O)O` [Example 10 C, Sodium D(-)-α-[(3-oxo-pyrazolidin-1-yl)-carbonylamino]-benzylpenicillin]: in the data set on Pseudomonas Walter, the MIC is on record as 8 - 16 μ/ml.
